The values below come from paper PMC6292453 (Biochemical Journal, 2018).

Each structure is given as a SMILES string.

This test deals with T1, P450ZoGa (CYP236A2, WP_013995999) (Zobellia galactanivorans, UniProt G0L713).
T1 sequence (G0L713 1-387): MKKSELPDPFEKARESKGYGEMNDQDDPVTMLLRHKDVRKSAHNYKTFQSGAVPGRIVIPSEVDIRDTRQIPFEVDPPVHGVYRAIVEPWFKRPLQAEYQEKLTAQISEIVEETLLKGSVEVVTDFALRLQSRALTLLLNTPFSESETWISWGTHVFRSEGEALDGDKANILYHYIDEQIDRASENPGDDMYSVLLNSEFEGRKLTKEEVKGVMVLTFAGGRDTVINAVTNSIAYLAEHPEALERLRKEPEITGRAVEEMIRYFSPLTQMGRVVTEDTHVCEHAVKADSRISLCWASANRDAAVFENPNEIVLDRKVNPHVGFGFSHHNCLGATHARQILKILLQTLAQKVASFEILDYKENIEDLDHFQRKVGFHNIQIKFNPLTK
Nature of the test: crystal structure of soaked complex. Format: binding.

A word on the Kd: it is the constant that tells how readily two partners part at equilibrium. High values mean weaker binding, low ones tighter binding. The compound `COC[C@H]1OC(O)[C@H](O)[C@@H](O)[C@H]1O` (stereo partly drawn) [G6Me, 6-O-methyl-D-galactose] returned a Kd of 980 ± 120 µM.
